This note sets out measurements from BindingDB's records for doi:10.1021/jm00045a012 (Dupont Pharmaceuticals, 1994).

The IC50 is the concentration that inhibits the measured activity by half. The low end stands for higher potency, the high end for lower potency.

In the assay the target is Stromelysin-1 (MMP-3) (Homo sapiens) (UniProt P08254). Briefly: Tested for the inhibition of prostromelysin activation with no preincubation period.
Chain of Stromelysin-1 (MMP-3) (Homo sapiens) (P08254 whole entry, looked up): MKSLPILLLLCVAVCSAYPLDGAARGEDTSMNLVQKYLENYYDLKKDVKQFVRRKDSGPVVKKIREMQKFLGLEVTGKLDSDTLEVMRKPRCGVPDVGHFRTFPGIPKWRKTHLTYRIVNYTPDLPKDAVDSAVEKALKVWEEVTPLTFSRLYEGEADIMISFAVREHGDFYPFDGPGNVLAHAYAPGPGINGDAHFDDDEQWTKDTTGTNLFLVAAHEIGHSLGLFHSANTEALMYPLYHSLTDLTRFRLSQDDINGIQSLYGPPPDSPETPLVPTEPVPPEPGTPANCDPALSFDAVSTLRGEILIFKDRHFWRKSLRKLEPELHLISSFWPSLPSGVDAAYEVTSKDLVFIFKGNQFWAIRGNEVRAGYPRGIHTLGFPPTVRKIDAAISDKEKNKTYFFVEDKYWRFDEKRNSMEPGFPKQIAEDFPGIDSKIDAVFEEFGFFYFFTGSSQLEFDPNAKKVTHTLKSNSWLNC

As for `COc1ccc(-n2sc3ncccc3c2=O)c(OC)c1` [2-(2,4-Dimethoxy-phenyl)-isothiazolo[5,4-b]pyridin-3-one], half-maximal inhibition (IC50) was put at 62 µM.
Then `COc1ccc(OC)c(-n2sc3ncccc3c2=O)c1` [2-(2,5-Dimethoxy-phenyl)-isothiazolo[5,4-b]pyridin-3-one], with 53 µM.
